Measured values published in US8609715B2, “Heteroarylcarboxylic acid ester derivative” (Ajinomoto Co., Inc., priority 2009, dated 2013).
Where a name gives a salt, the structure may show the parent alone.

These compounds were tested against recombinant human enteropeptidase (Homo sapiens (Human), UniProt P98073) (assay: Measurement of enteropeptidase inhibitory activity). Details: Dixon plot.
Assay type: biochemical
Procedure: Measurement of Enteropeptidase Inhibitory Activity
Using a 96 well plate (#3915, Costar), a test compound (25 μL), 400 mM Tris-HCl buffer (pH 8.0, 25 μL) and 0.5 mg/mL fluorescence enzyme substrate (Gly-Asp-Asp-Asp-Asp-Lys-β-Naphtylamide, 25 μL) were mixed, and recombinant human enteropeptidase (R&D Systems, Inc., 25 μL) was added. Using a fluorescence plate reader fmax (Molecular Devices, Inc.), the reaction rate was measured from the time-course changes at excitation wavelength 320 nm and fluorescence wavelength 405 nm. The Ki value was calculated from the concentration of the test compound, reciprocal of reaction rate, and Km value of the enzyme substrate, and by using Dixon plot.

Sequence of recombinant human enteropeptidase (P98073 whole entry): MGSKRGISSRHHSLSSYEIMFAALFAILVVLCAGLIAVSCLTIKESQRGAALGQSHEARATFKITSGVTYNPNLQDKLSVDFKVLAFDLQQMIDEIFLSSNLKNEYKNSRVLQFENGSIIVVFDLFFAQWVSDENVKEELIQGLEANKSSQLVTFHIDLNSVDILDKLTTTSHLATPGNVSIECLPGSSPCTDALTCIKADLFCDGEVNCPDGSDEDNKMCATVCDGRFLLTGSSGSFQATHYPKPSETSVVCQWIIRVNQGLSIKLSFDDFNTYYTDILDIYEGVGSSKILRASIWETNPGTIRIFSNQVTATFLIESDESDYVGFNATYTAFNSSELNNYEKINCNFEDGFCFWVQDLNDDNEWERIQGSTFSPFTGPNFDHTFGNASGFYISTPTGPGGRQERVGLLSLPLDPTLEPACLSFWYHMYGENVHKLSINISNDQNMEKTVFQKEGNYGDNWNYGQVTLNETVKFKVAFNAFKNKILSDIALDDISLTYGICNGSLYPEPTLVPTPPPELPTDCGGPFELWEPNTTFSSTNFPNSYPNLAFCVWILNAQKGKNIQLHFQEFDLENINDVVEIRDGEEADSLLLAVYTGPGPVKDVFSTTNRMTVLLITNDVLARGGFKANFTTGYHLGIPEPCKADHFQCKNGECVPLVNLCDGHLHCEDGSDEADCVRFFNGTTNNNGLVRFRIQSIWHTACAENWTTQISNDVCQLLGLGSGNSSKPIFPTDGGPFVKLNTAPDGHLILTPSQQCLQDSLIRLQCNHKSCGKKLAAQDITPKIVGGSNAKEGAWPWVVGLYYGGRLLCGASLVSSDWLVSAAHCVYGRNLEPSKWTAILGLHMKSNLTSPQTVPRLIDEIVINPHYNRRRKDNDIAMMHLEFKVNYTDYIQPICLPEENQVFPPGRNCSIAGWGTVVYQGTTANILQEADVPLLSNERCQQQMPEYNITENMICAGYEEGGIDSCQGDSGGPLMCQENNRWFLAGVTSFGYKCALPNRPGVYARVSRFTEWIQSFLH

Ki	SMILES
0.89 nM	CC(CCC(=O)N[C@@H](CC(=O)O)C(=O)O)Cc1ccc(C(=O)Oc2ccc(C(=N)N)cc2)s1 (stereo partly drawn) [Compound B-50]
0.72 nM	CC(Cc1cc(C(=O)Oc2ccc(C(=N)N)cc2F)cs1)C(=O)O (stereo not drawn) [Compound B-51, 3-[4-(4-amidino-2-fluorophenoxycarbonyl)thiophen-2-yl]-2-methylpropanoic acid trifluoroacetic acid salt]
0.39 nM	CC(Cc1cc(C(=O)Oc2ccc(C(=N)N)cc2F)cs1)C(=O)N[C@@H](CC(=O)O)C(=O)O (stereo partly drawn) [Compound B-52]
4.8 nM	CC(Cc1cc(C(=O)Oc2ccc(C(=N)N)cc2)cs1)C(=O)N[C@@H](CC(=O)O)C(=O)O (stereo partly drawn) [Compound B-53]
0.58 nM	N=C(N)c1ccc(OC(=O)c2csc(CCC(=O)N[C@@H](CC(=O)O)C(=O)O)c2)c(F)c1 [Compound B-54, N-{3-[4-(4-amidino-2-fluorophenoxycarbonyl)thiophen-2-yl]propanoyl}-L-aspartic acid trifluoroacetic acid salt]
0.98 nM	CC(Cc1csc(C(=O)Oc2ccc(C(=N)N)cc2)c1)C(=O)N[C@@H](CC(=O)O)C(=O)O (stereo partly drawn) [Compound B-55]
9.5 nM	N=C(N)c1ccc(OC(=O)c2ccc(-c3ccc(C(=O)N[C@@H](CC(=O)O)C(=O)O)cc3)s2)cc1 [Compound B-56]
3 nM	N=C(N)c1ccc(OC(=O)c2ccc(-c3ccc(C(=O)N[C@@H](CC(=O)O)C(=O)O)cc3)s2)c(F)c1 [Compound B-57]
9.8 nM	N=C(N)c1ccc(OC(=O)c2ccc(-c3cccc(C(=O)N[C@@H](CC(=O)O)C(=O)O)c3)s2)cc1 [Compound B-58]
8.2 nM	N=C(N)c1ccc(OC(=O)c2ccc(-c3ccc(C(=O)N[C@@H](CC(=O)O)C(=O)O)s3)s2)cc1 [Compound B-59, N-{5-[5-(4-amidinophenoxycarbonyl)-thiophen-2-yl]thiophen-2-ylcarbonyl}-L-aspartic acid trifluoroacetic acid salt]
0.64 nM	N=C(N)c1ccc(OC(=O)c2ccc(CC(=O)N[C@@H](CC(=O)O)C(=O)O)s2)c(F)c1 [Compound B-60, N-[5-(4-amidino-2-fluorophenoxycarbonyl)thiophen-2-ylacetyl]-L-aspartic acid trifluoroacetic acid salt]
0.13 nM	Cc1cc(C(=O)Oc2ccc(C(=N)N)cc2F)sc1CCC(=O)N[C@@H](CC(=O)O)C(=O)O [Compound B-61, N-{3-[5-(4-amidino-2-fluorophenoxycarbonyl)-3-methylthiophen-2-yl]propanoyl}-L-aspartic acid trifluoroacetic acid salt]
0.57 nM	N=C(N)c1ccc(OC(=O)c2ccc(CCC(=O)N[C@@H](CCC(=O)O)C(=O)O)s2)c(F)c1 [Compound B-62]
0.55 nM	C=CCN(C(=O)CCc1ccc(C(=O)Oc2ccc(C(=N)N)cc2F)s1)[C@@H](CC(=O)O)C(=O)O [Compound B-63, N-{3-[5-(4-amidino-2-fluorophenoxycarbonyl)thiophen-2-yl]propanoyl}-N-allyl-L-aspartic acid trifluoroacetic acid salt]
0.14 nM	CC(C)(Cc1ccc(C(=O)Oc2ccc(C(=N)N)cc2F)s1)C(=O)N[C@@H](CC(=O)O)C(=O)O [Compound B-64, N-{3-[5-(4-amidino-2-fluorophenoxycarbonyl)thiophen-2-yl]-2,2-dimethylpropanoyl}-L-aspartic acid trifluoroacetic acid salt]
3.2 nM	N=C(N)c1ccc(OC(=O)c2ccc(CCC(=O)N[C@@H](Cc3ccc(O)cc3)C(=O)O)s2)c(F)c1 [Compound B-65]
0.73 nM	N=C(N)c1ccc(OC(=O)c2ccc(CCC(=O)N[C@@H](CO)C(=O)O)s2)c(F)c1 [Compound B-66]
5.67 nM	C/C(=C\c1nc(C(=O)Oc2ccc(C(=N)N)cc2)cs1)C(=O)N(CCCO)CC(=O)O [Compound C-2]
